Assay results taken from PMC3546861, “HLA-A*0201-restricted CD8^+ T-cell epitopes identified in dengue viruses” (Virology Journal, 2012).
“Also recorded” adds a separate entry of the source.

Tests used:
[1] = biological target: HLA-A*0201 molecule of T2 cells (Homo sapiens, UniProt P04439, D140Y/D185E/D98H/E176V/E277Q/G131W/G231S/I119V/I121R/I166T/I218V/L300P/L318F/N151K/N90K/P208A/P217A/Q86G/Q94H/R138H/R169H/T345S); test: MHC-peptide complex stabilization assay on T2 cells; type: binding; design: key: FI = (MFI sample − MFI background) / MFI background; conditions: serum-free RPMI 1640, 1 h 37°C, 12 h 26°C, 3 h 37°C, FITC anti-HLA-A*0201, flow cytometry, FI = (MFI sample - MFI background)/MFI background
Method: Figure 1 The affinity of candidate epitopes for HLA-A*0201 molecules. T2 cells were incubated in RPMI 1640 medium lacking peptides (red) or containing low peptide (1 μg/ml) (green) or intermediate peptide (10 μg/ml) (purple) or high peptide (100 μg/ml) (blue) for 15 h and stained with FITC-conjugated anti-HLA-A*0201 antibody. Then, mean fluorescence intensity (MFI) was measured using flow cytometry.
The ability of peptides to stabilize MHC molecules on the surface of T2 cells was measured as described previously. T2 cells (2 × 10^5 cells/0.5 ml) were incubated in serum-free RPMI 1640 medium in the presence of different concentrations of peptide (1, 10, 100 μg/ml) for 1 h at 37°C/5% CO2 incubator. Cells were then incubated at 26°C for 12 h, and then returned to 37°C for a 3 h incubation. Finally, T2 cells were stained with FITC-conjugated anti-HLA-A*0201 antibody (BD Pharmingen, USA) for 40 min at 4°C. T2 cells incubated in serum-free RPMI 1640 medium without peptides served as a negative control (background). Mean fluorescence intensity (MFI) of T2 cells was recorded with a FACS Calibur flow cytometer (BD bioscience, USA), and results expressed as fluorescence index (FI). The following formula was used to calculate the FI.
(1) FI=MFI sample-MFI background/MFI background

[2] = tested on: HLA-A*0201 transgenic mice; test: IFN-γ ELISPOT assay on splenocytes of peptide-immunized mice; type: in vivo; conditions: mice immunized s.c. with peptide 50 μg/mouse in Freund's adjuvant, 5 weekly doses, splenocytes stimulated with cognate peptide 10 μg/ml, 24 h, background subtracted, mean ± SD, 4 mice/group
Method: (§1) HLA-A*0201 transgenic mice were subdivided into 12 groups (4 mice/group). Mice were inoculated subcutaneously with high-affinity peptide (50 μg/mouse) emulsified in Freund’s complete adjuvant. One week later, mice were immunized with the same peptide emulsified in Freund’s incomplete adjuvant. Mice were boosted three more times at weekly intervals. Mock-immunized (adjuvant alone) HLA-A*0201 transgenic mice and peptide-immunized C57BL/6 mice served as controls. One week after the final immunization, all mice were sacrificed and splenocytes extracted. ELISPOT and ICS assays were conducted to detect the frequencies of peptide-specific IFN-γ-producing cells. All animal were performed following the Institutional Animal Care and Use Committee-approved protocols.
Splenocytes were resuspended to a final concentration of 1 × 10^6 cells/ml in RPMI 1640 medium supplemented with 10% fetal bovine serum (FBS). ELISPOT assays were performed in pre-coated 96-well plates (U-CyTech Company, Netherlands). Splenocytes were seeded at 1 × 10^5 cells/well and exposed to either cognate or heterologous peptide at a final concentration of 10 μg/ml. Negative control wells contained splenocytes but no peptide. Positive control wells included cells plus phytohemagglutinin (PHA) at a final concentration of 10 μg/ml. All tests were carried out in duplicate wells, with plates incubated for 24 h at 37°C/5% CO2. Plates were washed and then incubated with biotinylated anti-mouse IFN-γ for 1 h at 37°C. After washing, plates were labeled with streptavidin-horseradish peroxidase, and developed using fresh ACE solution as a substrate. IFN-γ spots were counted using an ELISPOT reader (Beijing SageCreation Science Co. Ltd, Beijing, China). Peptide-specific T-cell frequency was expressed as SFCs/1 × 10^5 splenocytes. Background spots (negative control wells) were subtracted from test wells. A positive response to a peptide was defined as having > 5 SFCs/1 × 10^5 splenocytes after subtraction of the background.

[3] = tested on: HLA-A*0201 transgenic mice; test: ICS assay for CD8+ IFN-γ+ T cells in splenocytes of peptide-immunized mice; type: in vivo, mouse; conditions: for ICS CD8^+IFN-γ^+T cells, proportion in CD8^+ T cells: mice immunized s.c. with peptide 50 μg/mouse in Freund's adjuvant, 5 weekly doses, splenocytes stimulated with cognate peptide 10 μg/ml, 6 h, brefeldin A, CD3+CD8+ gate, mean ± SD, 4 mice/group, SD; for Cross-reactivity of peptide-specific CD8^+ T cells towards heterologous variant peptides: splenocytes of peptide-immunized mice stimulated with heterologous peptide 10 μg/ml, ELISPOT and ICS (Figures 4 and 7), result in words
Method: as §1
Splenocytes were cultured with either cognate peptide (10 μg/ml) or heterologous peptide (10 μg/ml) in a 1.5 ml microcentrifuge tube for 6 h at 37°C/5% CO2. […] During the last 5 h, brefeldin A (10 μg/ml) was added to each tube. After a 6 h incubation, cells were washed and then stained with APC-conjugated anti-mouse CD3 and FITC-conjugated anti-mouse CD8 antibodies (eBioscience company, USA) for 40 min at 4°C. Cells were then washed and fixed with 4% paraformaldehyde for 20 min at 4°C, permeabilized using 0.5% saponin for 10 min at 4 °C, and stained with PE-conjugated anti-mouse IFN-γ antibody (eBioscience company, USA) for 40 min at 4°C. A FACS Calibur flow cytometer (BD Bioscience, USA) was used to analyze labeled cells. CD3^+ CD8^+ T cells were gated and the proportion of IFN-γ-producing CD8^+ T cells (CD8^+ IFN-γ^+ T cells) as a subset of all CD8^+ T cells were determined.

LVMAFMAFL [D1V-C46-54]
FI (fluorescence index) ([1]; peptide 1 μg (1 μg/ml)): 0.01 | FI (fluorescence index) ([1]; peptide 10 μg (10 μg/ml)): 0.02 | FI (fluorescence index) ([1]; peptide 100 μg (100 μg/ml)): 0.02

LLMRTSWAL [D3V-NS4b182-190, D3V variant peptide of D1V-NS4b183-191, nonapeptide …]
FI (fluorescence index) ([1]; peptide 1 μg (1 μg/ml)): 0.22 | FI (fluorescence index) ([1]; peptide 10 μg (10 μg/ml)): 0.65 | FI (fluorescence index) ([1]; peptide 100 μg (100 μg/ml)): 3.6 | FI (fluorescence index) ([1]; peptide 100 μg (100 μg/ml), listed as D3V-NS4b182–190): > 1 | ELISPOT IFN-γ spot-forming cells [2]: 24 ± 5 SFCs/1×10^5cells | ICS CD8^+IFN-γ^+T cells, proportion in CD8^+ T cells [3]: 0.27 ± 0.07% | Cross-reactivity of peptide-specific CD8^+ T cells towards heterologous variant peptides [3]: cross-reacted with each other

AMVLSIVSL [D1V-NS2a169-177]
FI (fluorescence index) ([1]; peptide 1 μg (1 μg/ml)): 0.03 | FI (fluorescence index) ([1]; peptide 10 μg (10 μg/ml)): 0.05 | FI (fluorescence index) ([1]; peptide 100 μg (100 μg/ml)): 0.04

AILTVVAAT [D2V-NS4a140-148, D2V variant peptide of D1V-NS4a140-148, nonapeptide …]
FI (fluorescence index) ([1]; peptide 1 μg (1 μg/ml)): 0.1 | FI (fluorescence index) ([1]; peptide 10 μg (10 μg/ml)): 0.2 | FI (fluorescence index) ([1]; peptide 100 μg (100 μg/ml)): 1.2 | ELISPOT IFN-γ spot-forming cells [2]: 10 ± 3 SFCs/1×10^5cells | ICS CD8^+IFN-γ^+T cells, proportion in CD8^+ T cells [3]: 0.12 ± 0.05%

MLLALIAVL [D1V-NS4a56-64]
FI (fluorescence index) ([1]; peptide 1 μg (1 μg/ml)): 0.05 | FI (fluorescence index) ([1]; peptide 10 μg (10 μg/ml)): 0.05 | FI (fluorescence index) ([1]; peptide 100 μg (100 μg/ml)): 0.08

QLWTALVSL [D3V-NS2a144-152, D3V variant peptide of D1V-NS2a144-152, nonapeptide …]
FI (fluorescence index) ([1]; peptide 1 μg (1 μg/ml)): 0.2 | FI (fluorescence index) ([1]; peptide 10 μg (10 μg/ml)): 0.45 | FI (fluorescence index) ([1]; peptide 100 μg (100 μg/ml)): 2.6 | FI (fluorescence index) ([1]; peptide 100 μg (100 μg/ml), listed as D3V-NS2a144–152): > 1 | ELISPOT IFN-γ spot-forming cells [2]: 62 ± 9 SFCs/1×10^5cells | ICS CD8^+IFN-γ^+T cells, proportion in CD8^+ T cells [3]: 0.79 ± 0.15%

LLMRTTWAL [D1V-NS4b183-191]
FI (fluorescence index) ([1]; peptide 1 μg (1 μg/ml)): 0.29 | FI (fluorescence index) ([1]; peptide 10 μg (10 μg/ml)): 0.4 | FI (fluorescence index) ([1]; peptide 100 μg (100 μg/ml)): 1.95 | FI (fluorescence index) ([1]; peptide 100 μg (100 μg/ml), listed as D1V-NS4b183–191): exceeds 1 | ELISPOT IFN-γ spot-forming cells [2]: 42 ± 7 SFCs/1×10^5cells | ICS CD8^+IFN-γ^+T cells, proportion in CD8^+ T cells [3]: 0.44 ± 0.09% | Cross-reactivity of peptide-specific CD8^+ T cells towards heterologous variant peptides [3]: marked cross-reactivity; also recorded: cross-reacted with each other

LLMRTTWAF [D4V-NS4b179-187, D4V variant peptide of D1V-NS4b183-191, nonapeptide …]
FI (fluorescence index) ([1]; peptide 1 μg (1 μg/ml)): 0.2 | FI (fluorescence index) ([1]; peptide 10 μg (10 μg/ml)): 0.59 | FI (fluorescence index) ([1]; peptide 100 μg (100 μg/ml)): 4.4 | FI (fluorescence index) ([1]; peptide 100 μg (100 μg/ml), listed as D4V-NS4b179–187): > 4 | ELISPOT IFN-γ spot-forming cells [2]: 22±4 SFCs/1×10^5cells | ICS CD8^+IFN-γ^+T cells, proportion in CD8^+ T cells [3]: 0.16 ± 0.06% | Cross-reactivity of peptide-specific CD8^+ T cells towards heterologous variant peptides [3]: cross-reacted with each other

GILTLAAIV [D3V-NS4a140-148, D3V variant peptide of D1V-NS4a140-148, nonapeptide …]
FI (fluorescence index) ([1]; peptide 1 μg (1 μg/ml)): 0.1 | FI (fluorescence index) ([1]; peptide 10 μg (10 μg/ml)): 0.15 | ELISPOT IFN-γ spot-forming cells [2]: 37 ± 6 SFCs/1×10^5cells | ICS CD8^+IFN-γ^+T cells, proportion in CD8^+ T cells [3]: 0.37 ± 0.08%

QLWAALLSL [D1V-NS2a144-152]
FI (fluorescence index) ([1]; peptide 1 μg (1 μg/ml)): 0.05 | FI (fluorescence index) ([1]; peptide 10 μg (10 μg/ml)): 0.22 | FI (fluorescence index) ([1]; peptide 100 μg (100 μg/ml)): 1.12 | FI (fluorescence index) ([1]; peptide 100 μg (100 μg/ml), listed as D1V-NS2a144–152): exceeds 1 | ELISPOT IFN-γ spot-forming cells [2]: 36 ± 6 SFCs/1×10^5cells | ICS CD8^+IFN-γ^+T cells, proportion in CD8^+ T cells [3]: 0.41 ± 0.07%

LMMRTTWAL [D2V-NS4b182-190, D2V variant peptide of D1V-NS4b183-191, nonapeptide …]
FI (fluorescence index) ([1]; peptide 1 μg (1 μg/ml)): 0.58 | FI (fluorescence index) ([1]; peptide 10 μg (10 μg/ml)): 3.42 | FI (fluorescence index) ([1]; peptide 100 μg (100 μg/ml)): 4.8 | FI (fluorescence index) ([1]; peptide 100 μg (100 μg/ml), listed as D2V-NS4b182–190): > 4 | ELISPOT IFN-γ spot-forming cells [2]: 37 ± 5 SFCs/1×10^5cells | ICS CD8^+IFN-γ^+T cells, proportion in CD8^+ T cells [3]: 0.37 ± 0.09% | Cross-reactivity of peptide-specific CD8^+ T cells towards heterologous variant peptides [3]: cross-reacted with each other
